Data reported in article PMC9319939, “Siccanin Is a Dual-Target Inhibitor of Plasmodium falciparum Mitochondrial Complex II and Complex III” (Pharmaceuticals, 2022).

Tests used:
[1] = tested on: malate:quinone oxidoreductase (MQO); experiment: MQO activity, crude mitochondrial fraction, DCIP reduction; assay type: biochemical, Plasmodium falciparum
Protocol: A synchronized parasite culture was grown for 64 h and a crude mitochondrial fraction was prepared from trophozoite-stage cells (as confirmed by Giemsa staining). Infected red blood cells were collected by centrifugation at 800× g for 5 min at 4 °C and incubated for 5 min at room temperature with 40 mL of 0.075% (w/v) saponin in AIM buffer (120 mM KCl, 20 mM NaCl, 10 mM PIPES (1,4-piperazinediethanesulfonic acid) buffer [pH 6.7], 1 mM MgCl2, 5 mM glucose). Released parasites were collected by centrifugation at 2780× g for 7 min at 4 °C and washed three times with AIM buffer. […]
Complex II, DHODH, MQO, NDH2, G3PDH, and dihydroorotate-cytochrome c (DHO-cyt c) reductase activities were measured, as described previously, using a V-660 spectrophotometer (JASCO; Tokyo, Japan). Briefly, complex II activity was measured at 25 °C in a 1 mL reaction mixture containing 45 μM 2,6-dichlorophenolidophenol (DCIP), 100 μM ubiquinone-2 (UQ2), and 2 mM KCN in 50 mM potassium phosphate buffer, pH 8.0. DHODH, MQO, and G3PDH activities were measured at 25 °C in 1 mL of the reaction mixture containing 45 μM DCIP, 100 μM UQ2, and 2 mM KCN in 30 mM Tris-HCl buffer, pH 8.0. […] NDH2 activity was measured at 25 °C in 1 mL of the reaction mixture containing 100 µM UQ1 and 2 mM KCN in 50 mM potassium phosphate buffer, pH 8.0. […]

[2] = tested on: P. falciparum 3D7 strain; experiment: Isobologram analysis with atovaquone and siccanin, PfLDH-based; assay type: cell-based, Plasmodium falciparum
Protocol: The effect of the combination of atovaquone and siccanin was evaluated using isobologram analysis to evaluate the synergy, additivity, or antagonism between the two compounds [51, 83]. Synchronized ring-form parasites (0.3% parasitemia) were prepared in complete medium containing different concentrations of siccanin and atovaquone (at a fixed final DMSO concentration of 0.2% (v/v)) and distributed to 96-well plates at 100 μL/well. After 72 h of incubation, parasite growth was monitored by the previously described PfLDH-based assay using a SpectraMax® Paradigm spectrophotometer. IC50 values were calculated using Prism® ver.6.01. Data represent the means of three independent experiments, each performed in triplicate. The isobologram analysis was performed as described previously. For each combination assay, IC50s were calculated from each culture of P. falciparum grown in the presence of atovaquone or siccanin alone and in combination of various concentrations of the two compounds. The fractional inhibitory concentration (FIC) value was determined using the following equation: FIC =IC50 of compound in mixture/IC50 of compound alone
The combination index (CI) value was determined using the following equation: CI =IC50 of atovaquone in mixture/IC50 of atovaquone alone+IC50 of siccanin in mixture/IC50 of siccanin alone […]

[3] = tested on: Dd2_048 (PI4K-S743T mutation); experiment: Growth inhibition of Dd2_048 (MMV390048-resistant); assay type: cell-based; details: Plasmodium falciparum, read-out: Growth inhibition EC50, 048
Protocol: (§1) P. falciparum 3D7-yDHODH was prepared and maintained as described previously. P. falciparum Dd2, and Dd2-derived mutant strains were kindly provided by David A. Fidock, and maintained at Nagasaki University essentially as described in reference, except without supplementation with WR99210.
(§2) Synchronized ring-form parasites (0.3% parasitemia) were prepared in complete medium containing different concentration of various compounds (at a fixed final DMSO concentration of 0.1% (v/v)) and distributed to 96-well plates at 100 μL/well. After 72 h of incubation, parasite growth was monitored by the previously described lactate dehydrogenase (PfLDH)-based assay method; plates were read using a SpectraMax® Paradigm spectrophotometer (Molecular Devices, Inc.; San Jose, CA, USA). EC50 values were calculated using Prism® ver.6.01 (GraphPad; San Diego, CA, USA). Values are presented as the means of three independent experiments.

[4] = tested on: P. falciparum Dd2; experiment: Growth inhibition of Dd2 parent; assay type: cell-based; details: Plasmodium falciparum, DD2, read-out: Growth inhibition EC50, Dd2
Protocol: as §1, §2

[5] = tested on: Dd2_DDD (eEF2-Y186N mutation); experiment: Growth inhibition of Dd2_DDD (DDD107498-resistant); assay type: cell-based; details: Plasmodium falciparum, read-out: Growth inhibition EC50, DDD
Protocol: as §1, §2

[6] = tested on: T. mentagrophytes complex II; design: method as in PMID 4250609; details: ref [31]; read-out: IC50, T. mentagrophytes enzyme; cited from earlier work
[7] = tested on: Dd2_DHIQ (ATP4-G358S mutation); experiment: Growth inhibition of Dd2_DHIQ (cipargamin-resistant); assay type: cell-based; details: Plasmodium falciparum, read-out: Growth inhibition EC50, DHIQ
Protocol: as §1, §2

## Cc1cc(O)c2c(c1)O[C@@]1(C)CC[C@H]3C(C)(C)CCC[C@]34CO[C@@H]2[C@H]41 [Siccanin]
[1]; 10 µM
  Effect on MQO activity: did not inhibit
[1]; siccanin 10 μM
  Relative residual activity of MQO: 109.2 ± 2.0%
[2]; combination of siccanin and atovaquone, 3D7, 72 h
  Combination index: 1.0
[2]; isobologram, 3D7
  Combinatory effect with atovaquone: additive effect
[3]
  EC50: 13.5 µM
[4]
  EC50: 12.4 µM
[5]
  EC50: 13.1 µM
[6]
  IC50: ~0.09 µM
[7]
  EC50: 16.4 µM
